Test results published in patent publication US20230031406A1, “COMPOUNDS AND COMPOSITIONS FOR TREATING CONDITIONS ASSOCIATED WITH NLRP ACTIVITY” (Novartis AG, priority 2018, published 2023).
Read-outs that look alike come from different tables or passages of the source.

Test system: PMA-differentiated THP-1 cells
Test: IL-1β production in PMA-differentiated THP-1 cells stimulated with gramicidin (hTHP-1 assay containing 2% fetal bovine serum; Procedures 1 and 2)
Type: cell-based, human
Conditions: 2% fetal bovine serum
Method in brief: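 PMA-primed (20 ng/ml, 16-18 h) THP-1 cells in RPMI with 2% FBS, 50,000 cells/well, were preincubated 1 h with compound (0.0017-100 μM final, 0.37% DMSO), then stimulated 2 h with 5 μM gramicidin. Supernatant IL-1β measured by HTRF.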

[1] = Homo sapiens, THP-1, Table B2, class symbols, read-out: hTHP-1 IC50
[2] = Homo sapiens, THP-1, Table B3, hTHP-1 assay, class symbols, read-out: IC50
[3] = Table B3, hTHP-1 assay, class symbols, read-out: IC50
[4] = Table B1, class symbols, read-out: Average IC50 of compounds in hTHP-1 assay: hTHP-1 IC50
[5] = Homo sapiens, THP-1, Table B2, numeric bounds, read-out: hTHP-1 IC50
[6] = Table B4, class symbols, read-out: hTHP-1 IC50
[7] = Table B2, class symbols, read-out: hTHP-1 IC50

SMILES: Cc1c(C(F)(F)F)nc2c(c1NC(=O)N=S(N)(=O)c1cc(CO)n(C(C)C)n1)CCC2 (single isomer, unassigned) [Example 720, (R) or (S)-5-(hydroxymethyl)-1-isopropyl-N′-((3-methyl-2-(trifluoromethyl)-6,7-dihydro-5H-cyclopenta[b]pyridin-4-yl)carbamoyl)-1H-pyrazole-3-sulfonimidamide]
- IC50 (Homo sapiens, THP-1, Table B3, hTHP-1 assay, numeric values, read-out: IC50): ~30 µM

SMILES: Cc1nc2c(c(NC(=O)N=S(N)(=O)c3cnc(C(C)(O)CO)s3)c1C(C)C)CCC2 (stereo not drawn) [Compound 627, 2-(1,2-Dihydroxypropan-2-yl)-N′-((3-isopropyl-2-methyl-6,7-dihydro-5H-cyclopenta[b]pyridin-4-yl)carbamoyl)thiazole-5-sulfonimidamide]
- IC50 [1]: 0.2 to 1 µM

SMILES: CC(C)(O)c1cc(F)c(S(N)(=O)=NC(=O)Nc2cc(CC(F)(F)F)nc3c2CCC3)s1 (single isomer, unassigned) [Example 689, (R) or (S)-3-Fluoro-5-(2-hydroxypropan-2-yl)-N′-((2-(2,2,2-trifluoroethyl)-6,7-dihydro-5H-cyclopenta[b]pyridin-4-yl)carbamoyl)thiophene-2-sulfonimidamide]
- IC50 [2]: 1 to 5 µM

SMILES: C[C@@H]1CCc2c1nc1c(c2NC(=O)N=S(N)(=O)c2nn(C(F)F)cc2F)CCC1 (single isomer, unassigned) [Example 680, (S) or (R)-1-(difluoromethyl)-4-fluoro-N′-(((R)-3-methyl-1,2,3,5,6,7-hexahydrodicyclopenta[b,e]pyridin-8-yl)carbamoyl)-1H-pyrazole-3-sulfonimidamide]
- IC50 [3]: 5 to 30 µM

SMILES: CC(C)n1ccc(S(N)(=O)=NC(=O)Nc2c3c(nc4c2CCC42CC2)CCC3)n1 (single isomer, unassigned) [Compound 172b, (R) or (S)-1-Isopropyl-N′-((1′,5′,6′,7′-tetrahydro-2′H-spiro[cyclopropane-1,3′-dicyclopenta[b,e]pyridin]-8′-yl)carbamoyl)-1H-pyrazole-3-sulfonimidamide]
- IC50 [4]: 0.2 to 1 µM

SMILES: CC1(C)CCc2c1nc1c(c2NC(=O)N=S(N)(=O)c2cnn3c2OCCC3)CCC1 (single isomer, unassigned) [Compound 304b, (R) or (S)-N′-((3,3-dimethyl-1,2,3,5,6,7-hexahydrodicyclopenta [b,e]pyridin-8-yl)carbamoyl)-6,7-dihydro-5H-pyrazolo[5,1-b][1,3]oxazine-3-sulfonimidamide]
- IC50 [1]: 1 to 5 µM

SMILES: CC1CCc2c1nc1c(c2NC(=O)N=S(N)(=O)c2ncc(C(C)(C)O)s2)CCC1 (single isomer, unassigned) [Compound 140b, (S,R/S) or (R,R/S)-5-(2-hydroxypropan-2-yl)-N′-((3-methyl-1,2,3,5,6,7-hexa-hydrodicyclo-penta[b,e]pyridin-8-yl)carbamoyl)thiazole-2-sulfonimidamide]
- IC50 [4]: 5 to 30 µM

SMILES: Cc1c(C(F)(F)F)nc2c(c1NC(=O)N=S(N)(=O)c1cnc(C(C)(C)O)s1)CCC2C (single isomer, unassigned) [Example 706, (R, R) or (R, S)-N′-((3,7-dimethyl-2-(trifluoromethyl)-6,7-dihydro-5H-cyclopenta[b]pyridin-4-yl)carbamoyl)-2-(2-hydroxypropan-2-yl)thiazole-5-sulfonimidamide]
- IC50 [3]: 0.2 to 1 µM

SMILES: C[C@@H]1CCc2c1nc1c(c2NC(=O)N=S(N)(=O)c2ccn(-c3ccccc3)n2)CCC1 (single isomer, unassigned) [Compound 700a, (S) or (R)-N′-(((R)-3-methyl-1,2,3,5,6,7-hexahydrodicyclopenta [b,e]pyridin-8-yl)carbamoyl)-1-phenyl-1H-pyrazole-3-sulfonimidamide]
- IC50 [5]: > 30 µM

SMILES: CCn1cc(F)c(S(N)(=O)=NC(=O)Nc2c(-c3ccccc3)cnc3c2CCC3)n1 (single isomer, unassigned) [Example 794, (S) or (R)-1-ethyl-4-fluoro-N′-((3-phenyl-6,7-dihydro-5H-cyclopenta[b]pyridin-4-yl)carbamoyl)-1H-pyrazole-3-sulfonimidamide]
- IC50 [6]: 5 to 30 µM

SMILES: CCn1cc(F)c(S(N)(=O)=NC(=O)Nc2c3c(nc(C4CC4)c2C2CC2)CCC3)n1 (single isomer, unassigned) [Example 707, (R) or (S)-N′-((2,3-dicyclopropyl-6,7-dihydro-5H-cyclopenta[b]pyridin-4-yl)carbamoyl)-1-ethyl-4-fluoro-1H-pyrazole-3-sulfonimidamide]
- IC50 [3]: 0.008 to 0.04 µM

SMILES: CCn1cc(F)c(S(N)(=O)=NC(=O)Nc2c3c(nc4c2CC[C@H]4C)CCC3)n1 (single isomer, unassigned) [Example 669, (R) or (S)-1-ethyl-4-fluoro-N′-(((R)-3-methyl-1,2,3,5,6,7-hexahydrodicyclopenta[b,e]pyridin-8-yl)carbamoyl)-1H-pyrazole-3-sulfonimidamide]
- IC50 [3]: 0.008 to 0.04 µM

SMILES: CC(O)c1nc(C(C)(C)O)sc1S(=N)(=O)NC(=O)Nc1c2c(nc3c1CCC3)CCC2 (single isomer, unassigned) [Compound 643a, (R, R/S) or (S, R/S)-N-((1,2,3,5,6,7-hexahydrodicyclopenta [b,e]pyridin-8-yl)carbamoyl)-4-(1-hydroxyethyl)-2-(2-hydroxypropan-2-yl) thiazole-5-sulfonimidamide]
- IC50 [1]: 5 to 30 µM

SMILES: CC1(C)CCc2c1nc1c(c2NC(=O)N=S(N)(=O)c2sc(C(C)(O)CO)cc2F)CCC1 (single isomer, unassigned) [Compound 640c, (R, S) and (S, S) or (S, R) and (R, R)-5-(1,2-Dihydroxypropan-2-yl)-N′-((3,3-dimethyl-1,2,3,5,6,7-hexahydrodicyclopenta [b,e]pyridin-8-yl)carbamoyl)-3-fluorotliophene-2-sulfonimidamide]
- IC50 [7]: 1 to 5 µM

SMILES: CCn1ccc(S(N)(=O)=NC(=O)Nc2c(C)c(C(F)(F)F)nc3c2CCC3)n1 (stereo not drawn) [Compound 731]
- IC50 [1]: 1 to 5 µM

SMILES: CCn1cc(F)c(S(N)(=O)=NC(=O)Nc2c(-c3ccccc3)cnc3c2CCC3)n1 (single isomer, unassigned) [Example 793, (R) or (S)-1-ethyl-4-fluoro-N′-((3-phenyl-6,7-dihydro-5H-cyclopenta[b]pyridin-4-yl)carbamoyl)-1H-pyrazole-3-sulfonimidamide]
- IC50 [6]: 0.2 to 1 µM

SMILES: CCn1cc(F)c(S(N)(=O)=NC(=O)Nc2c3c(nc(C(F)(F)F)c2-c2ccccc2F)CCC3)n1 (single isomer, unassigned) [Example 780, (S) or (R)-1-ethyl-4-fluoro-N′-((3-(2-fluorophenyl)-2-(trifluoromethyl)-6,7-dihydro-5H-cyclopenta[b]pyridin-4-yl)carbamoyl)-1H-pyrazole-3-sulfonimidamide]
- IC50 [6]: 0.2 to 1 µM

SMILES: Cc1nc(C(C)(C)O)ccc1S(N)(=O)=NC(=O)Nc1c2c(nc3c1CCC3)CCC2 (single isomer, unassigned) [Compound 157b, (R) or (S)-N′-((1,2,3,5,6,7-hexahydrodicyclo-penta[b,e]pyridin-8-yl)carbamoyl)-6-(2-hydroxypropan-2-yl)-2-methylpyridine-3-sulfonimidamide]
- IC50 (Homo sapiens, THP-1, Table B1, class symbols, read-out: Average IC50 of compounds in hTHP-1 assay: hTHP-1 IC50): 5 to 30 µM

SMILES: Cc1c(CC2CC2)nc2c(c1NC(=O)N=S(N)(=O)c1cc(C(C)(C)O)cs1)CCC2 (single isomer, unassigned) [Compound 665a, (S) or (R)-N′-((2-(cyclopropylmethyl)-3-methyl-6,7-dihydro-5H-cyclopenta[b]pyridin-4-yl)carbamoyl)-4-(2-hydroxypropan-2-yl)thiophene-2-sulfonimidamide]
- IC50 [5]: > 30 µM

SMILES: CC(C)c1ncc(F)c(C(C)C)c1NC(=O)N=S(N)(=O)c1nc(C(C)(C)O)cs1 (single isomer, unassigned) [Compound 163b, (S) or (R)-N′-((5-fluoro-2,4-diisopropylpyridin-3-yl)carbamoyl)-4-(2-hydroxypropan-2-yl)thiazole-2-sulfonimidamide]
- IC50 [4]: 5 to 30 µM

SMILES: CCn1cc(F)c(S(N)(=O)=NC(=O)Nc2c3c(nc4c2CCC42CC2)CCC3)n1 (stereo not drawn) [Example 628, 1-Ethyl-4-fluoro-N′-((1′,5′,6′,7′-tetrahydro-2′H-spiro[cyclopropane-1,3′-dicyclopenta[b,e]pyridin]-8′-yl)carbamoyl)-1H-pyrazole-3-sulfonimidamide]
- IC50 [2]: 0.04 to 0.2 µM

SMILES: CC(C)c1nc(CO)c(S(N)(=O)=NC(=O)Nc2c3c(nc4c2CCC4(C)C)CCC3)s1 (single isomer, unassigned) [Compound 680a, (S) or (R)-N′-((3,3-dimethyl-1,2,3,5,6,7-hexahydrodicyclopenta [b,e]pyridin-8-yl)carbamoyl)-4-(hydroxymethyl)-2-isopropylthiazole-5-sulfonimidamide]
- IC50 [7]: 5 to 30 µM

SMILES: CC1CCc2c1nc1c(c2NC(=O)N=S(N)(=O)c2cn(C(C)C)cn2)CCC1 (single isomer, unassigned) [Compound 660b, (S, S) or (R, S) or (S, R) or (R, R)-1-Isopropyl-N′-((3-methyl-1,2,3,5,6,7-hexahydrodicyclopenta [b,e]pyridin-8-yl)carbamoyl)-1H-imidazole-4-sulfonimidamide]
- IC50 (Table B2, numeric bounds, read-out: hTHP-1 IC50): > 30 µM

SMILES: CCn1cc(F)c(S(N)(=O)=NC(=O)Nc2c3c(nc4c2CC[C@@H]4C)CCC3)n1 (single isomer, unassigned) [Example 711, (R) or (S)-1-ethyl-4-fluoro-N′-(((S)-3-methyl-1,2,3,5,6,7-hexahydrodicyclopenta[b,e]pyridin-8-yl)carbamoyl)-1H-pyrazole-3-sulfonimidamide]
- IC50 [3]: 0.04 to 0.2 µM
